Target: T1, recombinant human 15-PGDH (Homo sapiens, UniProt P15428)
T1 construct: purchased R&D Systems
T1 sequence (P15428 1-266): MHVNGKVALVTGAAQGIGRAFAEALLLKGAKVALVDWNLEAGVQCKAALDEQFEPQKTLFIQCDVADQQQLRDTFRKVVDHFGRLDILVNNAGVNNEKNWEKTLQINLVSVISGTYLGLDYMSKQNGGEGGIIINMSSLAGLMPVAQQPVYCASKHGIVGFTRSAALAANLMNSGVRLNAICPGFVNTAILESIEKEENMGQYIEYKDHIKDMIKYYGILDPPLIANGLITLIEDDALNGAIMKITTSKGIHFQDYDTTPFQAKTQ
Experiment: 15-PGDH enzyme inhibition test
Type: biochemical
Conditions: 4 nM recombinant human 15-PGDH, 30 μM PGE2, 1 mM NAD+, 60 minutes after starting the reaction; read-out: IC50 Value
In short: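 4 nM recombinant human enzyme pre-incubated with compound 12 min at room temperature in 50 mM Tris-HCl pH 8.0 with 0.01% Tween 20 and 0.01% bovine gamma globulin. Reaction started with 30 μM PGE2 and 1 mM NAD+, read after 60 min by fluorescence (ex 340/em 440 nm). IC50 from concentration-response curve.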

Row | IC50 [nM] | SMILES
1 | > 100 | CN(CCCCO)C(=O)c1cnc2c(c1)OCCN2c1ccn2c(=O)n(C)nc2c1 [Example 8-177]
2 | > 100 | CCC(O)CNC(=O)c1cnc2c(c1)OCCN2c1ccn2c(=O)n(C)nc2c1 (centres unmarked) [Example 8-178]
3 | 10 to 100 | CCN(CC(C)O)C(=O)c1cnc2c(c1)OCCN2c1ccn2c(=O)n(C)nc2c1 (centres unmarked) [Example 8-179]
4 | 10 to 100 | CC(O)CCNC(=O)c1cnc2c(c1)OCCN2c1ccn2c(=O)n(C)nc2c1 (centres unmarked) [Example 8-180]
5 | 10 to 100 | CC(O)CCN(C)C(=O)c1cnc2c(c1)OCCN2c1ccn2c(=O)n(C)nc2c1 (centres unmarked) [Example 8-181]
6 | 10 to 100 | CN(CC(C)(C)O)C(=O)c1cnc2c(c1)OCCN2c1ccn2c(=O)n(C)nc2c1 [Example 8-182]
7 | 10 to 100 | Cn1nc2cc(N3CCOc4cc(C(=O)N5CCC(C#N)CC5)cnc43)ccn2c1=O [Example 8-183]
8 | < 10 | CN1Cc2cc(N3CCOc4cc(C(=O)N5CCC5)cnc43)ccc2C1=O [Example 8-184]
9 | < 10 | CN1Cc2cc(N3CCOc4cc(C(=O)N5CCCC5)cnc43)ccc2C1=O [Example 8-185]
10 | < 10 | CN1Cc2cc(N3CCOc4cc(C(=O)N5CCCCCC5)cnc43)ccc2C1=O [Example 8-186]
11 | < 10 | CN1Cc2cc(N3CCOc4cc(C(=O)N5CCCCCCC5)cnc43)ccc2C1=O [Example 8-187]
12 | < 10 | CN1Cc2cc(N3CCOc4cc(C(=O)N5CCOCC5)cnc43)ccc2C1=O [Example 8-188]
13 | < 10 | CN1CCN(C(=O)c2cnc3c(c2)OCCN3c2ccc3c(c2)CN(C)C3=O)CC1 [Example 8-189]
14 | > 100 | CC(=O)N1CCN(C(=O)c2cnc3c(c2)OCCN3c2ccc3c(c2)CN(C)C3=O)CC1 [Example 8-190]
15 | < 10 | CN1Cc2cc(N3CCOc4cc(C(=O)N5CC=CCC5)cnc43)ccc2C1=O [Example 8-191]
16 | < 10 | CN1Cc2cc(N3CCOc4cc(C(=O)N5CCc6ccccc6C5)cnc43)ccc2C1=O [Example 8-192]
17 | < 10 | CN1Cc2cc(N3CCOc4cc(C(=O)N5Cc6ccccc6C5)cnc43)ccc2C1=O [Example 8-193]
18 | < 10 | CC1CCN(C(=O)c2cnc3c(c2)OCCN3c2ccc3c(c2)CN(C)C3=O)CC1 [Example 8-194]
19 | < 10 | C[C@@H]1CCCCN1C(=O)c1cnc2c(c1)OCCN2c1ccc2c(c1)CN(C)C2=O [Example 8-195]
20 | < 10 | C[C@H]1CCCCN1C(=O)c1cnc2c(c1)OCCN2c1ccc2c(c1)CN(C)C2=O [Example 8-196]
21 | < 10 | C[C@@H]1CCCN(C(=O)c2cnc3c(c2)OCCN3c2ccc3c(c2)CN(C)C3=O)C1 [Example 8-197]
22 | < 10 | C[C@H]1CCCN(C(=O)c2cnc3c(c2)OCCN3c2ccc3c(c2)CN(C)C3=O)C1 [Example 8-198]
23 | < 10 | CN1Cc2cc(N3CCOc4cc(C(=O)N5CCC[C@@H](F)C5)cnc43)ccc2C1=O [Example 8-199]
24 | < 10 | CN1Cc2cc(N3CCOc4cc(C(=O)N5CCC[C@H](F)C5)cnc43)ccc2C1=O [Example 8-200]

Row | IC50 [nM] | SMILES
25 | < 10 | CN1Cc2cc(N3CCOc4cc(C(=O)N5CCCC(F)(F)C5)cnc43)ccc2C1=O [Example 8-201]
26 | < 10 | CN1Cc2cc(N3CCOc4cc(C(=O)N5CCC(F)CC5)cnc43)ccc2C1=O [Example 8-202]
27 | < 10 | CN1Cc2cc(N3CCOc4cc(C(=O)N5CCC[C@@H](CF)C5)cnc43)ccc2C1=O [Example 8-203]
28 | < 10 | CN1Cc2cc(N3CCOc4cc(C(=O)N5CCC[C@H](CF)C5)cnc43)ccc2C1=O [Example 8-204]
29 | < 10 | CN1Cc2cc(N3CCOc4cc(C(=O)N5CCC[C@@H](C(F)F)C5)cnc43)ccc2C1=O [Example 8-205]
30 | < 10 | CN1Cc2cc(N3CCOc4cc(C(=O)N5CCC[C@H](C(F)F)C5)cnc43)ccc2C1=O [Example 8-206]
31 | < 10 | CN1Cc2cc(N3CCOc4cc(C(=O)N5CCC[C@@H](C(F)(F)F)C5)cnc43)ccc2C1=O [Example 8-207]
32 | < 10 | CN1Cc2cc(N3CCOc4cc(C(=O)N5CCC[C@H](C(F)(F)F)C5)cnc43)ccc2C1=O [Example 8-208]
33 | < 10 | CN1Cc2cc(N3CCOc4cc(C(=O)N5CCCC(C)(F)C5)cnc43)ccc2C1=O (centres unmarked) [Example 8-209]
34 | < 10 | CC1CN(C(=O)c2cnc3c(c2)OCCN3c2ccc3c(c2)CN(C)C3=O)CCC1(F)F (centres unmarked) [Example 8-210]
35 | < 10 | CCn1nc2cc(N3CCOc4cc(C(=O)N5CCC(F)(F)CC5)cnc43)ccn2c1=O [Example 8-211]
36 | < 10 | CCN1Cc2cc(N3CCOc4cc(C(=O)N5CCC(F)(F)CC5)cnc43)ccc2C1=O [Example 8-212]
37 | < 10 | CCn1oc2cc(N3CCOc4cc(C(=O)N5CCCCC5)cnc43)ccc2c1=O [Example 8-213]
38 | < 10 | CCn1oc2cc(N3CCOc4cc(C(=O)N5CCC(F)(F)CC5)cnc43)ccc2c1=O [Example 8-214]
39 | < 10 | CCOc1noc2cc(N3CCOc4cc(C(=O)N5CCCCC5)cnc43)ccc12 [Example 8-215]
40 | < 10 | CCOc1noc2cc(N3CCOc4cc(C(=O)N5CCC(F)(F)CC5)cnc43)ccc12 [Example 8-216]
41 | < 10 | CCn1nc2cc(N3CCOc4cc(C(=O)N5CC=CCC5)cnc43)ccn2c1=O [Example 8-217]
42 | > 100 | CCn1nc2cc(N3CCOc4cc(C(=O)N5CCCCC56COC6)cnc43)ccn2c1=O [Example 8-218]
43 | > 100 | CCn1nc2cc(N3CCOc4cc(C(=O)N5CCN(C(C)=O)CC5)cnc43)ccn2c1=O [Example 8-219]
44 | > 100 | CCn1nc2cc(N3CCOc4cc(C(=O)N5CCN(C(=O)OC(C)(C)C)CC5)cnc43)ccn2c1=O [Example 8-220]
45 | > 100 | CCn1nc2cc(N3CCOc4cc(C(=O)N5CCN(C)C(=O)C5)cnc43)ccn2c1=O [Example 8-221]
46 | < 10 | Cn1nc2cc(N3CCOc4cc(C(=O)N5CCCCC5)sc43)ccn2c1=O [Example 8-222]
47 | 10 to 100 | Cn1nc2cc(N3CCOc4cc(C(=O)N5CCC(F)(F)CC5)sc43)ccn2c1=O [Example 8-223]
48 | 10 to 100 | Cn1nc2cc(N3CCOc4cc(C(=O)N5CCCCCCC5)sc43)ccn2c1=O [Example 8-224]

Row | IC50 [nM] | SMILES
49 | 10 to 100 | Cn1nc2cc(N3CCOc4cc(C(=O)N5CCOCC5)cnc43)ccn2c1=O [Example 8-225]
50 | 10 to 100 | CN1CCN(C(=O)c2cnc3c(c2)OCCN3c2ccn3c(=O)n(C)nc3c2)CC1 [Example 8-226]
51 | > 100 | Cn1nc2cc(N3CCOc4cc(C(=O)N5CCC[C@H]5C(=O)OC(C)(C)C)cnc43)ccn2c1=O [Example 8-227]
52 | > 100 | Cn1nc2cc(N3CCOc4cc(C(=O)N5CCC[C@@H]5C(=O)OC(C)(C)C)cnc43)ccn2c1=O [Example 8-228]
53 | < 10 | Cn1nc2cc(N3CCOc4cc(C(=O)N5CC=CCC5)cnc43)ccn2c1=O [Example 8-229]
54 | < 10 | Cn1nc2cc(N3CCOc4cc(C(=O)N5CCC(O)CC5)cnc43)ccn2c1=O [Example 8-230]
55 | < 10 | O=C(O)c1ccc(N2CCOc3c2ccc(C(=O)N2CCCCC2)c3C2CC2)cc1 [Example 9-1, 4-(8-Cyclopropyl-7-(piperidine-1-carbonyl)-2,3-dihydro-4H-benzo[b][1,4]oxazin-4-yl)benzoic Acid]
56 | < 10 | CC(C)(O)c1ccc(N2CCOc3cc(C(=O)N4CCCCC4)ccc32)cc1 [Example 10-1, (4-(4-(2-Hydroxypropan-2-yl)phenyl)-3,4-dihydro-2H-benzo[b][1,4]oxazin-7-yl)(piperidin-1-yl)methanone]
57 | < 10 | CC(C)(O)c1ccc(N2CCOc3c2ccc(C(=O)N2CCCCC2)c3Cl)cc1 [Example 10-2]
58 | < 10 | COC(=O)c1nc2ccc(N3CCOc4cc(C(=O)N5CCCCC5)cnc43)cc2s1 [Example 11-3]
59 | 10 to 100 | Cn1nc2cc(N3CCOc4cc(C(=O)N5CCCCC5)cnc43)cc(-n3ccnc3)n2c1=O [Example 11-4]
60 | > 100 | COC(=O)c1ccc2nc(N3CCOc4cc(C(=O)N5CCCCC5)cnc43)cn2c1 [Example 11-5]
61 | < 10 | COC(=O)c1ccc2cc(N3CCOc4cc(C(=O)N5CCCCC5)cnc43)nn2c1 [Example 11-6]
62 | < 10 | O=C(c1cnc2c(c1)OCCN2c1ccc2c(=O)[nH]oc2c1)N1CCCCC1 [Example 14-1]
63 | < 10 | O=C1NCc2cc(N3CCOc4cc(C(=O)N5CCCCC5)cnc43)ccc21 [Example 14-2]
64 | < 10 | O=C1NCc2cc(N3CCOc4cc(C(=O)N5CCC(F)(F)CC5)ccc43)ccc21 [Example 14-3]
65 | < 10 | O=C1NCc2cc(N3CCCc4cc(C(=O)N5CCCCC5)cnc43)ccc21 [Example 14-4]
66 | < 10 | O=C1NCc2cc(N3CCCc4cc(C(=O)N5CCC(F)(F)CC5)cnc43)ccc21 [Example 14-5]
67 | < 10 | O=C1NCc2cc(N3CCOc4cc(C(=O)N5CCC(F)(F)CC5)cnc43)ccc21 [Example 14-6]
68 | < 10 | O=C(c1cnc2c(c1)CCCN2c1ccc(-c2nn[nH]n2)cc1)N1CCCCC1 [Example 14-7]
69 | < 10 | O=C(c1cnc2c(c1)OCCN2c1ccc2c(=O)[nH]ncc2c1)N1CCCCC1 [Example 14-8]
70 | < 10 | O=C1NCc2cc(N3CCOc4cc(C(=O)N5CCCCC5)cnc43)ncc21 [Example 14-9]
71 | < 10 | O=C(c1cnc2c(c1)OCCN2c1ccc(-c2nnn[nH]2)cc1)N1CCCCC1 [Example 14-10]

From patent publication US12577217B2, “15-PGDH inhibitor” (KYORIN Pharmaceutical Co., Ltd., priority 2019, dated 2026)
